Series [1] concerns the target Topoisomerase IV (Staphylococcus aureus, UniProt P0C1S7+P0C1U9). The series can be described thus: Inhibition of Staphylococcus aureus topoisomerase 4 assessed as reduction in decatenation using kDNA as substrate incubated for 30 mins by fluorimetric assay. It is filed as protein-complex assay.
The subject of series [2] is Staphylococcus aureus. The series can be described thus: Antibacterial activity against Staphylococcus aureus Newman assessed as inhibition of bacterial growth incubated for 24 hrs by broth microdilution method. In kind it is functional. (In general: Dilution methods test growth across graded concentrations, often in twofold steps.)
The subject of series [3] is Escherichia coli. The series can be described thus: Antibacterial activity against Escherichia coli ATCC 8739 assessed as inhibition of bacterial growth incubated for 24 hrs by broth microdilution method. In kind it is functional.
For series [4], the target named is DNA gyrase (Escherichia coli, UniProt P0AES4+P0AES6). The series is described as follows: Inhibition of Escherichia coli DNA gyrase supercoiling activity using pBR322 as substrate incubated for 30 mins by fluorimetric assay. It is filed as protein-complex assay.
The subject of series [5] is Mus musculus. The series is described as follows: Effect on GABA protein expression in Swiss albino mouse assessed as decrease in GABA protein expression at 0.6 mmol/Kg, iv administered as single dose by western blot analysis. It is filed as functional, organism-based. On the technique in general: Immunoblotting shows a protein as a band on a membrane.
Series [6] can be described thus: Toxicity in Swiss albino mouse assessed as clonic convulsions at 0.6 mmol/Kg, iv administered as single dose observed for 6 hrs. It is filed as organism-based. The following applies: in vivo.

Values after ≈ are worked out from the molar mass of the structure shown. Active and inactive are the calls of the source. The rule behind the calls is not given here.

Chain of Topoisomerase IV (P0C1U9 whole entry): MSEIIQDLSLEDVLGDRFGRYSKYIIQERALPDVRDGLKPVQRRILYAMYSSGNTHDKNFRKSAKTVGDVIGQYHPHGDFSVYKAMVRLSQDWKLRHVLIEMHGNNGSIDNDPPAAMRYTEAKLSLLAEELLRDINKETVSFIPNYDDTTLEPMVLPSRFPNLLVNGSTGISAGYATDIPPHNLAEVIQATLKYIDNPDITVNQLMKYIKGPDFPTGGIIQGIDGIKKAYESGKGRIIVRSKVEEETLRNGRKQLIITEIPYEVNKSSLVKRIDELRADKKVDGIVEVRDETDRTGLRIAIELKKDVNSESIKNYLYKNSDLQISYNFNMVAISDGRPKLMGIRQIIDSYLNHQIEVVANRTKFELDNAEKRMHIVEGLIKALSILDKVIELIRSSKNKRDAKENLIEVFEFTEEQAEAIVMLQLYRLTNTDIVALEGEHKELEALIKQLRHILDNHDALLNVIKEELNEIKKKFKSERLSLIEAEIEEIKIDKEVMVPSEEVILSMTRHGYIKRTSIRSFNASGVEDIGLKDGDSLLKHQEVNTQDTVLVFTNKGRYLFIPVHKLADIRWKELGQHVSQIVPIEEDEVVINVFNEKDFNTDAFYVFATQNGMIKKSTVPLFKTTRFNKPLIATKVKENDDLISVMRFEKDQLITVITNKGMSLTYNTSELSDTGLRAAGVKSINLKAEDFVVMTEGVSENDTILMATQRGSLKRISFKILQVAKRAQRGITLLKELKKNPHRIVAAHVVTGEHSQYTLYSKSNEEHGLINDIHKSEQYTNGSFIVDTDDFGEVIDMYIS
Chain of Topoisomerase IV (P0C1S7 whole entry): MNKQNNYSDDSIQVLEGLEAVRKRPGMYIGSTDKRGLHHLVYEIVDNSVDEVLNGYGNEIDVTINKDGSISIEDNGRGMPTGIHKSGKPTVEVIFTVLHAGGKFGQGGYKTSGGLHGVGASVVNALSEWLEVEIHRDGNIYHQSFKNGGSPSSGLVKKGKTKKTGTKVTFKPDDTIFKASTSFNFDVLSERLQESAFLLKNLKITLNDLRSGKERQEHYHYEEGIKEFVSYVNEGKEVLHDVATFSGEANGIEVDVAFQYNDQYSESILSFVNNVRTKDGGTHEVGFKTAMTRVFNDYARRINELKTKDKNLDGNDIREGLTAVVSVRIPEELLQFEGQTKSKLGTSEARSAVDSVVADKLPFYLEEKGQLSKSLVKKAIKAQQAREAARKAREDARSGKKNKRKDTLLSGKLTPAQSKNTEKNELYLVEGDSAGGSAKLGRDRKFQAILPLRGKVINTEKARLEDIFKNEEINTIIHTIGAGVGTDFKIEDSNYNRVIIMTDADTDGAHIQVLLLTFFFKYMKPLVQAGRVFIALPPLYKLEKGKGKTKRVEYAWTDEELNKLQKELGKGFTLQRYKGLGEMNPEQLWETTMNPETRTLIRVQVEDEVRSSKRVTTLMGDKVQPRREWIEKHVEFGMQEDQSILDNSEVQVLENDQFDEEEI

As to `O=C(CN1CCN(c2cc3c(cc2F)c(=O)c(C(=O)O)cn3C2CC2)CC1)Nc1ccc(S(=O)(=O)Nc2ncccn2)cc1`, the values for the half-inhibitory concentration (IC50) in series [1] and in series [4] were 2.08 µM and 2.87 µM, respectively. The MIC (as a rule, the lowest concentration found to suppress growth) in series [2] came to 1.61 µM (≈ 1 µg/mL); in series [3] it was 1.34 µM (≈ 0.834 µg/mL).
Turning to `CC(C(=O)Nc1ccc(S(N)(=O)=O)cc1)N1CCN(c2cc3c(cc2F)c(=O)c(C(=O)O)cn3C2CC2)CC1` (stereo unspecified), the figures for the concentration for half-maximal inhibition (IC50) in series [1] and in series [4] were 6.66 µM and 5.65 µM, respectively. Moreover, the MIC is 1.5 µM (≈ 0.834 µg/mL) in series [2] and 0.897 µM (≈ 0.5 µg/mL) in series [3].
Consider `O=C(O)c1cn(C2CC2)c2cc(N3CCN(/N=N/c4ccc(S(=O)(=O)Nc5cnc6ccccc6n5)cc4)CC3)c(F)cc2c1=O`, for which the results for the IC50 in series [1] and in series [4] were 12.8 µM and 5.86 µM, respectively. The minimal inhibitory concentration (MIC) in series [2] was 5.19 µM (≈ 3.33 µg/mL); in series [3], 0.389 µM (≈ 0.25 µg/mL).
With `O=C(O)c1cn(C2CC2)c2cc(N3CCNCC3)c(F)cc2c1=O` [CIPROFLOXACIN], the minimum inhibitory concentration (MIC) is 1.36 µM (≈ 0.45 µg/mL) in series [2] and 0.255 µM (≈ 0.0845 µg/mL) in series [3].
For `O=C(CN1CCN(c2cc3c(cc2F)c(=O)c(C(=O)O)cn3C2CC2)CC1)Nc1ccc(S(=O)(=O)Nc2cnc3ccccc3n2)cc1`, the IC50 (commonly the concentration that gives 50% inhibition) in series [1] was determined as 0.35 µM; in series [4] it was 0.55 µM. Further, the result in series [5] was Active. Moreover, the MIC in series [2] was 1.99 µM (≈ 1.33 µg/mL); in series [3], 0.744 µM (≈ 0.5 µg/mL). Besides, the Activity entry in series [6] is “Non-Toxic”.
Regarding `O=C(O)c1cn(C2CC2)c2cc(N3CCN(/N=N/c4ccc(S(=O)(=O)Nc5ncccn5)cc4)CC3)c(F)cc2c1=O`, the half-inhibitory concentration (IC50) is 9.5 µM in series [1] and 12.8 µM in series [4]. The MIC in series [2] is 0.422 µM (≈ 0.25 µg/mL); in series [3], 0.013 µM (≈ 0.0077 µg/mL).
Turning to `O=C(CCN1CCN(c2cc3c(cc2F)c(=O)c(C(=O)O)cn3C2CC2)CC1)Nc1ccc(S(=O)(=O)Nc2ncccn2)cc1`, the 50% inhibitory concentration (IC50) in series [1] is 1.8 µM; in series [4], 1.99 µM. For the same compound, the MIC in series [2] was determined as 1.57 µM (≈ 1 µg/mL); in series [3], 2.62 µM (≈ 1.67 µg/mL).
The matching figures for `NS(=O)(=O)c1ccc(/N=N/N2CCN(c3cc4c(cc3F)c(=O)c(C(=O)O)cn4C3CC3)CC2)cc1`: 2.43 µM, 3.56 µM, 0.324 µM (≈ 0.167 µg/mL) and 0.025 µM (≈ 0.0129 µg/mL).
Regarding `O=C(CCN1CCN(c2cc3c(cc2F)c(=O)c(C(=O)O)cn3C2CC2)CC1)Nc1ccc(S(=O)(=O)Nc2cncc(Cl)n2)cc1`, the 50% inhibitory concentration (IC50) in series [1] amounted to 0.44 µM; in series [4], 1.24 µM. Moreover, the MIC in series [2] and in series [3] was 287 µM (≈ 192 µg/mL) in each case.
In the case of `O=C(CN1CCN(c2cc3c(cc2F)c(=O)c(C(=O)O)cn3C2CC2)CC1)Nc1ccc(S(=O)(=O)Nc2cncc(Cl)n2)cc1`, the figures for the half-maximal inhibitory concentration (IC50) in series [1] and in series [4] were 2.29 µM and 0.9 µM, respectively. Moreover, the MIC in series [2] came to 1.52 µM (≈ 1 µg/mL); in series [3], 2.54 µM (≈ 1.67 µg/mL).
The matching figures for `NS(=O)(=O)c1ccc(NC(=O)CCN2CCN(c3cc4c(cc3F)c(=O)c(C(=O)O)cn4C3CC3)CC2)cc1`: 0.6 µM, 1.1 µM, 2.99 µM (≈ 1.67 µg/mL) and 0.897 µM (≈ 0.5 µg/mL).
Regarding `O=C(CCN1CCN(c2cc3c(cc2F)c(=O)c(C(=O)O)cn3C2CC2)CC1)Nc1ccc(S(=O)(=O)Nc2cnc3ccccc3n2)cc1`, the IC50 stood at 0.23 µM in series [1] and 0.43 µM in series [4]. The outcome in series [5] was Active. The MIC in series [2] came out at 0.972 µM (≈ 0.667 µg/mL); in series [3] it was 0.608 µM (≈ 0.417 µg/mL). Further, the Activity result in series [6] was “Non-Toxic”.
Consider `CC(C(=O)Nc1ccc(S(=O)(=O)Nc2cnc3ccccc3n2)cc1)N1CCN(c2cc3c(cc2F)c(=O)c(C(=O)O)cn3C2CC2)CC1` (stereo unspecified), for which the 50% inhibitory concentration (IC50) in series [1] was 1.21 µM; in series [4] it was 1.44 µM. Moreover, the MIC came to 0.729 µM (≈ 0.5 µg/mL) in series [2] and 1.94 µM (≈ 1.33 µg/mL) in series [3].
For the compound `Cc1cc(NS(=O)(=O)c2ccc(/N=N/N3CCN(c4cc5c(cc4F)c(=O)c(C(=O)O)cn5C4CC4)CC3)cc2)no1`, the concentration for half-maximal inhibition (IC50) came to 2.58 µM in series [1] and 1.95 µM in series [4]. Also, the MIC in series [2] came to 0.839 µM (≈ 0.5 µg/mL); in series [3] it was 1.12 µM (≈ 0.666 µg/mL).
The matching figures for `O=C(O)c1cn(C2CC2)c2cc(N3CCN(/N=N/c4ccc(S(=O)(=O)Nc5cncc(Cl)n5)cc4)CC3)c(F)cc2c1=O`: 12.8 µM, 13 µM, 1.59 µM (≈ 1 µg/mL) and 1.33 µM (≈ 0.833 µg/mL).
Regarding `NS(=O)(=O)c1ccc(NC(=O)CN2CCN(c3cc4c(cc3F)c(=O)c(C(=O)O)cn4C3CC3)CC2)cc1`, the IC50 stood at 3.77 µM in series [1] and 1.32 µM in series [4]. The MIC is 7.36 µM (≈ 4 µg/mL) in series [2] and 12.3 µM (≈ 6.67 µg/mL) in series [3].
The like results for `Cc1cc(NS(=O)(=O)c2ccc(NC(=O)CN3CCN(c4cc5c(cc4F)c(=O)c(C(=O)O)cn5C4CC4)CC3)cc2)no1` were, in that order, 4.66 µM, 1.33 µM, 3.2 µM (≈ 2 µg/mL) and 7.47 µM (≈ 4.67 µg/mL).
Turning to `NC(N)=NS(=O)(=O)c1ccc(/N=N/N2CCN(c3cc4c(cc3F)c(=O)c(C(=O)O)cn4C3CC3)CC2)cc1`, the half-maximal inhibitory concentration (IC50) was 0.64 µM in series [1] and 0.77 µM in series [4]. In series [5], the result was Active. Also, the values for the MIC in series [2] and in series [3] were 1.8 µM (≈ 1 µg/mL) and 3 µM (≈ 1.67 µg/mL), respectively. Besides, in series [6], the Activity entry is reported as “Non-Toxic”.
With `Cc1cc(NS(=O)(=O)c2ccc(NC(=O)CCN3CCN(c4cc5c(cc4F)c(=O)c(C(=O)O)cn5C4CC4)CC3)cc2)no1`, the IC50 in series [1] stood at 3.91 µM; in series [4], 6.31 µM. The minimal inhibitory concentration (MIC) was 1.04 µM (≈ 0.667 µg/mL) in series [2] and 5.22 µM (≈ 3.33 µg/mL) in series [3].
On to `Cc1cc(NS(=O)(=O)c2ccc(NC(=O)C(C)N3CCN(c4cc5c(cc4F)c(=O)c(C(=O)O)cn5C4CC4)CC3)cc2)no1` (stereo unspecified), for which the values for the IC50 in series [1] and in series [4] were 0.39 µM and 1.27 µM, respectively. Moreover, in series [5], the result was Active. The MIC in series [2] was found to be 0.783 µM (≈ 0.5 µg/mL); in series [3], 1.04 µM (≈ 0.667 µg/mL). The Activity entry in series [6] is “Non-Toxic”.
